Holding throughout (format): cell-based
Data set [1] deals with X4-tropic HIV-1-LAI. As to the kind of experiment: Antiviral assay, PHA-P-activated PBMC infected with HIV-1-LAI, RT activity in supernatants. Conditions: Table 7, VIH-1-LAI; for EC50: read-out: ED50 (the source's name).
Data set [2] relates to uninfected PHA-P-activated PBMC. Put plainly: Cytotoxicity, MTT assay on day 7. On the procedure:
(§1) In parallel, cytotoxicity of the samples was evaluated in uninfected PHA-P-activated PBMC by a methyltetrazolium salt (MTT) assay on day 7. Experiments were performed in triplicate and 50, 70 and 90% effective doses and cytotoxic doses were calculated using SoftMaxPro software.

The subject of data set [3] is R5-tropic HIV-1/Ba-L. Put plainly: Antiviral assay, PHA-P-activated PBMC infected with HIV-1/Ba-L, RT activity in supernatants. Conditions: Table 7, VIH-1/Ba-L.
Data set [4] in a line: Cytotoxicity, MTT assay on day 7. Conditions: human, uninfected PHA-P-activated PBMC. On the procedure: as §1

Ends that are not written are not given here.

For “5-aminopentyl[(3-O-benzyl-4-O-(4-methoxybenzyl)-2-O-sulfonato-α-L-idopyranosyluronate)-(1→4)-O-(3-O-benzyl-2-deoxy-2-sulfoamino-6-O-sulfonato-α-D-glucopyranoside)-(1→4)-O-(3-O-benzyl-2-O-sulfonato-α-L-idopyranosyluronate)]-(1→4)-O-3-O-benzyl-2-deoxy-2-sulfoamino-6-O-sulfonato-α-D-glucopyranoside heptasodium salt [HS4Bz]”, in data set [1], the ED70 is above 1 µM, the ED90 was above 1 µM and the EC50 is above 1 µM. Also, in data set [2], the “Cytotoxicity CT50” value is above 1000 nM, the “Cytotoxicity CT70” value is recorded as above 1000 nM and the “Cytotoxicity CT90” value was above 1000 nM.
As to MEDLEETLFEEFENYSYDLDYYSLESC [GPR1], in data set [3], the ED70 was above 1 µM and the ED90 was above 1 µM. Also, the EC50 in data set [3] (read-out: ED50 (the source's name)) is above 1 µM. Further, in data set [1], the ED70 was above 1 µM, the ED90 is above 1 µM and the EC50 is above 1 µM. Further, in data set [2], the “Cytotoxicity CT70” value is on record as above 1000 nM and the “Cytotoxicity CT90” value is above 1000 nM. The CC50 at 168 h in data set [4] was above 1 µM.

What is called CC50 is the concentration at which the toxic effect on the cells reaches its halfway point. A lower CC50 goes with greater toxicity to the cells.

These data come from patent US9295730B2, “Conjugated molecules comprising a peptide derived from the CD4 receptor coupled to a polyanion for the treatment of AIDS” (Institut Pasteur, priority 2008, dated 2016).
